In ChEMBL document CHEMBL1152394, “Antiproliferative bistramides from Trididemnum cyclops from Madagascar (1)” (J Nat Prod, 2009):

What was measured:
KB = experiment: Antiproliferative activity against human KB cells; format: functional, cell-based
A2780 [1] = experiment: Antiproliferative activity against human A2780 cells; format: functional, cell-based
P388 [2] = experiment: Antiproliferative activity against mouse P388 cells; format: functional, cell-based
[3] = Antiproliferative activity against endothelial cells; format: cell-based; settings: Endothelial cell
A2780 [4] = experiment: Ratio of IC50 for human KB cells to IC50 for human A2780 cells; format: functional
P388 [5] = experiment: Ratio of IC50 for mouse P388 cells to IC50 for human A2780 cells; format: functional
A2780 [6] = experiment: Ratio of IC50 for endothelial cells to IC50 for human A2780 cells

Which IC50 (KB) does the source give for C/C=C/C(O)C/C=C/C[C@H](C)[C@@H](O)CC(=O)NC[C@H](O)[C@H](C)C(=O)NCCC[C@H]1O[C@@]2(CCC[C@@H](CC[C@H](C)/C=C(\C)C(C)=O)O2)CC[C@@H]1C (some centres undefined) here?
Its IC50 is 45 nM.

And the IC50 (A2780 [1])?
The IC50 was 340 nM.

What about the IC50 (P388 [2]) of the same compound?
Its IC50 is 20 nM.

What about the IC50 [3] of the same compound?
The IC50 was 22 nM.

What about the “Ratio IC50” value (A2780 [4]) of the same compound?
The value was 10.

And the “Ratio IC50” value (P388 [5])?
Its value is 10.

What about the “Ratio IC50” value (A2780 [6]) of the same compound?
Its value is 10.

With C/C=C/C(=O)C[C@H]1CC[C@H](C)[C@H](CC(=O)NC[C@H](O)[C@H](C)C(=O)NCCC[C@H]2O[C@@]3(CCC[C@H](CC[C@H](C)/C=C(\C)[C@H](C)O)O3)CC[C@@H]2C)O1 [BISTRAMIDE A] as the compound, how does the IC50 (KB) read?
The IC50 was 45 nM.

And the IC50 (A2780 [1])?
Its IC50 is 260 nM.

What about the IC50 (P388 [2]) of the same compound?
Its IC50 is 20 nM.

What about the IC50 [3] of the same compound?
Its IC50 is 22 nM.

What about the “Ratio IC50” value (A2780 [4]) of the same compound?
The value was 10.

What about the “Ratio IC50” value (P388 [5]) of the same compound?
The value was 10.

What about the “Ratio IC50” value (A2780 [6]) of the same compound?
Its value is 10.
